Values quoted from earlier work as cited in US8192721B2, “Compositions useful for reducing toxicity associated with gadolinium-based contrast agents” (Verrow Pharmaceuticals, Inc., priority 2007, dated 2012).

What was measured:
[1] = healthy subjects with normal renal function
[2] = compared with underivatized β-cyclodextrin

Molecule	plasma half-life [1]	nephrotoxicity [2]
[Gd] [gadolinium]	approximately 90 minutes	
β-cyclodextrin sulfobutyl ethers [Captisol®]		does not exhibit the nephrotoxicity
